Results: patent publication US20180148418A1, “AMIDO-SUBSTITUTED CYCLOHEXANE DERIVATIVES” (Bayer Pharma Aktiengesellschaft, priority 2015, published 2018)

Columns and labels:
[1] = system: HEK293 cells cotransfected with the FOP control vector; assay: HEK293 FOP assay (control reporter with non-functional TCF elements); format: cell-based; settings: Homo sapiens, 16 hours
Method: In a parallel approach, HEK293 cells were cotransfected with the FOP control vector and pcDNA3. The FOP vector is identical to the TOP construct, but it contains instead of functional TCF elements a randomized, non-functional sequence. For this transfection a stable transfected cell line was generated as well, based on selection with Geneticin (1 mg/ml).
(§1) In preparation of the assay, the two cell lines were plated 24 h before beginning the test at 10000 cells per well in a 384 micro titre plate (MTP) in 30 μl growth medium. […] The recombinant human Wnt-3a was thereby applied between 2500 and 5 ng/ml in two-fold dilution steps.
(§2) Selective inhibitory activity for small molecules on the wildtype Wnt pathway was determined after parallel incubation of both (TOP and FOP) HEK293 reporter cell lines with a compound dilution series from 50 μM to 15 nM in steps of 3.16-fold dilutions in CAFTY buffer (130 mM sodium chloride, 5 mM potassium chloride, 20 mM HEPES, 1 mM magnesium chloride, 5 mM sodium bicarbonate, pH 7.4) containing 2 mM Ca^2+ and 0.01% BSA.
(§3) The compounds were thereby serially prediluted in 100% DMSO and thereafter 50 fold into the CAFTY compound dilution buffer (described above).

[2] = system: wildtype Wnt signaling cascade; assay: HEK293 TOP assay (Super TopFlash luciferase reporter, Wnt-3a stimulated); format: cell-based; settings: Homo sapiens, HEK293, 16 h, HEK293 TOP reporter cells, Wnt3a at EC50, 16 hours
Text: 7.1 Measurement of the Inhibitory Activity of Selected Compounds on the Wildtype Wnt Signaling Cascade: HEK293 TOP/FOP Assay
In order to discover and characterize small molecules which inhibit the wildtype Wnt pathway, a cellular reporter assay was employed. The corresponding assay cell was generated by transfection of the mammalian cell line HEK293 (ATCC, #CRL-1573) with the Super TopFlash vector (Morin, Science 275, 1997, 1787-1790; Molenaar et al., Cell 86 (3), 1996, 391-399). The HEK293 cell line is cultivated at 37° C. and 5% CO2 in DMEM (Life Technologies, #41965-039), supplemented with 2 mM glutamine, 20 mM HEPES, 1.4 mM pyruvate, 0.15% Na-bicarbonate and 10% foetal bovine serum (GIBCO, #10270). Stable transfectants were generated by selection with 300 μg/ml Hygromycin.
as §1, §2, §3

TNKS2 = molecular target: T1, TNKS2 (Homo sapiens, UniProt Q9H2K2); assay: TNKS2 Assay B (auto-parsylation, [3H]-NAD+ SPA); format: biochemical; settings: 6 nM TNKS2, auto-parsylation, over night at room temperature
T1 construct: purchased BPS Bioscience, San Diego, USA 80572 (TNKS2 Histone Ribosylation Assay Kit)
T1 sequence (Q9H2K2 1-1166): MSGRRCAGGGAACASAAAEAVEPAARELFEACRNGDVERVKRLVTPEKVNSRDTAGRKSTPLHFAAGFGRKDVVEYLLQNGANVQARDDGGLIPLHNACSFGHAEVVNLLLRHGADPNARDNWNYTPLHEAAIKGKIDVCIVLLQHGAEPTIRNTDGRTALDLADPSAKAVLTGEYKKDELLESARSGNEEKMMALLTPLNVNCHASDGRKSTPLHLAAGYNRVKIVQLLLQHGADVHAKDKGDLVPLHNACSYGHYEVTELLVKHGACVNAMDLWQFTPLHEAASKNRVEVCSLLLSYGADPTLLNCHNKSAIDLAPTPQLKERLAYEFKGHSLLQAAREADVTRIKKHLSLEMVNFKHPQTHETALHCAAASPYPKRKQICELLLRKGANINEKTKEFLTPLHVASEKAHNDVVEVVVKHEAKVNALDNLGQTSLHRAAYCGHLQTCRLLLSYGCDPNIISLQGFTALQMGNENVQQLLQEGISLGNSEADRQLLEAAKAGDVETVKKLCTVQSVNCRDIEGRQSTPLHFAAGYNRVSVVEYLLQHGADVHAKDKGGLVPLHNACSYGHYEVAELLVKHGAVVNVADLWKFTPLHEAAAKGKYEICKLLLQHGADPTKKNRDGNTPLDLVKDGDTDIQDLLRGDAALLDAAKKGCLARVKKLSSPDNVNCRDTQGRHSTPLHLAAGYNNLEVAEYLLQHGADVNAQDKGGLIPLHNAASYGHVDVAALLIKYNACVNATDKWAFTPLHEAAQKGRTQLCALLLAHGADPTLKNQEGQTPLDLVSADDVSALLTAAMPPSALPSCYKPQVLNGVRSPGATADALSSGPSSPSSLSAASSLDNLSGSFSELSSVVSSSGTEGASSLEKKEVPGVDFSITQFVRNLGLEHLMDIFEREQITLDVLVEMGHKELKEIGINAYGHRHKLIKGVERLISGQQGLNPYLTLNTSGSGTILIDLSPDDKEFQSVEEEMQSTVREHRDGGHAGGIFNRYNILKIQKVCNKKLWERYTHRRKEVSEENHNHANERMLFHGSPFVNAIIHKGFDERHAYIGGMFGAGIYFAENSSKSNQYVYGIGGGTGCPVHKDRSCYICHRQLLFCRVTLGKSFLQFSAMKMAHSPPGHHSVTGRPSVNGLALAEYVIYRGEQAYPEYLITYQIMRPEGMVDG
Method: The potency of selected compounds according to the invention was assessed applying a modified in vitro inhibition assay. Here, the TNKS2 catalyzed NAD^+-dependent ribosylation of the enzyme itself (auto-parsylation) was detected using [^3H]-NAD^+ as substrate and applying the scintillation proximity assay (SPA) method to detect tritium-labeled, parsylated TNKS2. The intensity of the readout signal is proportional to the incorporated [^3H]-NAD^+. Inhibition of TNKS2 leads to a decreased incorporation of [^3H]-NAD^+ and consequently to a lower readout signal intensity. The concentration of a test compound which inhibits the enzyme activity by 50% (corresponds to half of the normed readout signal intensity) is reported as IC50.
Protocol Auto-Parsylation Assay
The assay was conducted in a 96 well MTP format with the identical TNKS2 enzyme sample and NAD^+ sample as in the histone ribosylation assay with the following modifications: TNKS2 enzyme sample was diluted with a modified assay buffer (50 mM MES pH 7.0, 1 mM DTT, 0.01% Triton X-100) to a final concentration of 6 nM TNKS2 and 10×NAD^+ solution was diluted with the modified assay buffer (s. above) to a final 0.445×NAD^+ solution doped with 100 Bq/μl [^3H]-NAD^+[Catalog #NET443H050UC, Perkin Elmer, Waltham, Mass., USA]. Substrate solution (10 μl) was incubated with different test compound concentrations (2.5 μl in 10% DMSO in modified assay buffer) or control (2.5 μl 10% DMSO in modified assay buffer only) and enzyme (10 μl) over night at room temperature. Incorporated tritium was measured after addition of 50 ul SPA beads (1 mg/ml) [Catalog #RPNQ0095 20 mg/ml, Perkin Elmer, Waltham, Mass., USA; diluted 1:10 with Dulbecco's phosphate buffered saline, PBS Catalog #D8537, Sigma-Aldrich, Steinheim, Germany] and detection of the photon emission with a beta count plate reader [Wallac MicroBeta®, Perkin Elmer, Waltham, Mass., USA].

SMILES | IC50 [2] | IC50 (TNKS2) | IC50 [1]
O=C(N[C@H]1CC[C@@]2(CCCN(c3ccc(F)cc3Cl)C2=O)CC1)c1[nH]cnc1C(=O)N1CC(F)C1 [Example 327, N-[(trans)-2-(2-chloro-4-fluorophenyl)-1-oxo-2-azaspiro[5.5]undec-9-yl]-4-[(3-fluoroazetidin-1-yl)carbonyl]-1H-imidazole-5-carboxamide] | 7 nM | 29 nM | 31000 nM
Cc1cc(N2CC[C@]3(CC[C@@H](NC(=O)c4[nH]cnc4C(=O)N4CC(F)C4)CC3)C2=O)c(Cl)cc1F [Example 292, N-[(trans)-2-(2-chloro-4-fluoro-5-methylphenyl)-1-oxo-2-azaspiro[4.5]dec-8-yl]-4-[(3-fluoroazetidin-1-yl)carbonyl]-1H-imidazole-5-carboxamide] | 1.6 nM | 8.8 nM | 10000 nM
O=C(N[C@H]1CC[C@@]2(CCN(c3ccc(F)cc3Cl)C2=O)CC1)c1cnn2ccc(C(F)F)nc12 [Example 330, N-[(trans)-2-(2-chloro-4-fluorophenyl)-1-oxo-2-azaspiro[4.5]dec-8-yl]-5-(difluoromethyl)pyrazolo[1,5-a]pyrimidine-3-carboxamide] | 5 nM | 11 nM | 30000 nM
O=C(N[C@H]1CC[C@@]2(CCCN(c3cc(F)c(F)cc3Cl)C2=O)CC1)c1[nH]cnc1C(=O)N1CC(OC(F)F)C1 [Example 322, N-[(trans)-2-(2-chloro-4,5-difluorophenyl)-1-oxo-2-azaspiro[5.5]undec-9-yl]-4-{[3-(difluoromethoxy)azetidin-1-yl]carbonyl}-1H-imidazole-5-carboxamide] | 1.4 nM | 12 nM | 21000 nM
Cc1ccnc2c(C(=O)N[C@H]3CC[C@]4(CCN(c5ccc(F)cc5Cl)C4=O)CC3)cnn12 [Example 336, N-[(cis)-2-(2-chloro-4-fluorophenyl)-1-oxo-2-azaspiro[4.5]dec-8-yl]-7-methylpyrazolo[1,5-a]pyrimidine-3-carboxamide] | 54 nM | 870 nM | ≥ 50000 nM
Cc1cc(C(F)F)n2ncc(C(=O)N[C@H]3CC[C@]4(CCN(c5ccc(F)cc5Cl)C4=O)CC3)c2n1 [Example 333, N-[(cis)-2-(2-chloro-4-fluorophenyl)-1-oxo-2-azaspiro[4.5]dec-8-yl]-7-(difluoromethyl)-5-methylpyrazolo[1,5-a]pyrimidine-3-carboxamide] | 55 nM | 670 nM | 30000 nM
O=C(NCCN1CCOCC1)c1nc[nH]c1C(=O)N[C@H]1CC[C@@]2(CCN(c3cccc(Cl)c3)C2=O)CC1 [Example 287, N^5-[(trans)-2-(3-chlorophenyl)-1-oxo-2-azaspiro[4.5]dec-8-yl]-N^4-[2-(morpholin-4-yl)ethyl]-1H-imidazole-4,5-dicarboxamide] | 69 nM | 21 nM | ≥ 50000 nM
CCc1cc(CC)n2ncc(C(=O)N[C@H]3CC[C@@]4(CCN(c5ccc(F)cc5Cl)C4=O)CC3)c2n1 [Example 348, N-[(trans)-2-(2-chloro-4-fluorophenyl)-1-oxo-2-azaspiro[4.5]dec-8-yl]-5,7-diethyl pyrazolo[1,5-a]pyrimidine-3-carboxamide] | 1.8 nM | 9.2 nM | ≥ 50000 nM

Second part, led by results:

IC50 [2] | IC50 (TNKS2) | SMILES | IC50 [1]
15 nM | 270 nM | Cc1cc(N2CCC[C@]3(CC[C@@H](NC(=O)c4[nH]cnc4C(=O)NC(C)C)CC3)C2=O)c(Cl)cc1F [Example 310, N^5-[(trans)-2-(2-chloro-4-fluoro-5-methylphenyl)-1-oxo-2-azaspiro[5.5]undec-9-yl]-N^4-(propan-2-yl)-1H-imidazole-4,5-dicarboxamide] | 13000 nM
1 nM | 9.2 nM | Cc1cc(N2CC[C@]3(CC[C@@H](NC(=O)c4[nH]cnc4C(=O)NC4CC4)CC3)C2=O)c(Cl)cc1F [Example 295, N^5-[(trans)-2-(2-chloro-4-fluoro-5-methylphenyl)-1-oxo-2-azaspiro[4.5]dec-8-yl]-N^4-cyclopropyl-1H-imidazole-4,5-dicarboxamide] | 12000 nM
5.4 nM | 110 nM | Cc1cc(N2CCC[C@]3(CC[C@@H](NC(=O)c4[nH]cnc4C(=O)NC4CC4)CC3)C2=O)c(Cl)cc1F [Example 308, N^5-[(trans)-2-(2-chloro-4-fluoro-5-methylphenyl)-1-oxo-2-azaspiro[5.5]undec-9-yl]-N^4-cyclopropyl-1H-imidazole-4,5-dicarboxamide] | 11000 nM
14 nM | 130 nM | CNC(=O)c1nc[nH]c1C(=O)N[C@H]1CC[C@@]2(CCCN(c3ccc(F)cc3Cl)C2=O)CC1 [Example 159] | ≥ 50000 nM
12 nM | 67 nM | COCCNC(=O)c1nc[nH]c1C(=O)N[C@H]1CC[C@@]2(CCCN(c3cc(C)c(F)cc3Cl)C2=O)CC1 [Example 306, N^5-[(trans)-2-(2-chloro-4-fluoro-5-methylphenyl)-1-oxo-2-azaspiro[5.5]undec-9-yl]-N^4-(2-methoxyethyl)-1H-imidazole-4,5-dicarboxamide] | ≥ 500 nM
79 nM | 240 nM | CNC(=O)c1nc[nH]c1C(=O)N[C@H]1CC[C@H](C(=O)Nc2c(Cl)cc(F)cc2C#N)CC1 [Example 174, N^5-{trans-4-[(2-chloro-6-cyano-4-fluorophenyl)carbamoyl]cyclohexyl}-N^4-methyl-1H-imidazole-4,5-dicarboxamide] | ≥ 50000 nM
